Reference: patent US11155546B2, “4,6,7-trisubstituted 1,2-dihydropyrrolo[3,4-c]pyridin/pyrimidin-3-one derivatives and uses thereof” (SHANGHAI HAIYAN PHARMACEUTICAL TECHNOLOGY CO., LTD., priority 2017, dated 2021)

Tests used:
BTK WT = BTK WT (Homo sapiens (Human), UniProt Q06187); experiment: Lantha screening kinase reaction, inhibition of BTK WT; assay type: biochemical
Method: The compound was predissolved in 100% DMSO. 10 mM drug stock solution was obtained by dissolution at room temperature and then serially diluted with 8 vol % DMSO solution to a final concentration of 10-0.005 μM. […] Among the wells, the kinase in the blank well was replaced with a reaction buffer and the kinase well (Enzyme) was not added with any drug. After shaking at 25° C. for 60 minutes in the dark, 10 μl of Detection Solution (mixture of Invitrogen PV3528 and EDTA, which was diluted with TR-FRET dilution buffer, the working concentration of EDTA was 5 mM, the working concentration of Lanthascreening Tb PY20 antibody was 0.2 nM) was added and shaken at room temperature for 30 minutes. The plates were read on a VictorX5 fluorescent plate reader (PerkinElmer) and the light absorption at an excitation wavelength of 340 nm and emission wavelengths of 500 nm and 520 nm was measured.
The calculation method for the inhibition ratio (referring to the specification of Invitrogen, PV3363) was as follows: Emission ratio (ER):Coumarin Emission (520 nm)/Fluorescein Emission (500 nm) 1. The inhibition ratio (IR):(ERkinase−ERtest compound)/(ERkinase−ERblank)×100%. 2.
The half-inhibitory concentration IC50 was calculated by fitting with XLFIT5.0 software (IDBS, UK).

βBTK Y223 = βBTK Y223 (Homo sapiens (Human), UniProt Q06187); experiment: Intracellular βBTK Y223 phosphorylation HTRF in Ramos cells; assay type: cell-based
Method: The compound was predissolved in 100% DMSO. […] 20 μl of lysate (4× lysate: blocked mother liquor is 25:1) was added to each well and incubated for 30 minutes at 25° C. on a shaker. It was shaken on an oscillator at 800 rpm for 1 minute. […] The half-inhibitory concentration IC50 was calculated by fitting with XLFIT 5.0 software (IDBS, UK).

wild-type EGFR kinase = wild-type EGFR kinase (Homo sapiens (Human), UniProt P00533); experiment: Wild type EGFR kinase inhibition test (z-lyte); assay type: biochemical; conditions: 10 μM ATP; read-out: EGFR WT IC50
Text: All the following reagents used in z-lyte test are commercially available from Invitrogen.
The calculation method for the inhibition ratio (referring to the specification of Invitrogen, PV3363) was as follows: ER=Coumarin Emission(450 nm)/Fluorescein Emission(520 nm) 1. Phosphorylation ratio=(1−((ER×C3520nm−C3450nm)/((C1450nm−C3450nm)+ER×(C3520nm−C1520nm))))×100% 2. Inhibition ratio (IR)=(1−phosphorylation ratio of the test compound)/(phosphorylation ratio of C2))×100% 3.
The half-inhibitory concentration IC50 was calculated by fitting with XLFIT 5.0 software (IDBS, UK).

in vivo = experiment: in vivo
Method: Test Animals: ICR mice, weight 28-30 g, male, totally 12, purchased from SLAC Laboratory Animal Co., Ltd. Mice were fasting one night before administration and freely fed 4 hours after administration.
Administration and Blood collection: 6 mice were administered intragastrically (PO) in a administered dosage of 30 mg/kg and a administered volume of 10 mL/kg. One administration route was subjected with 6 mice, blood samples of three mice were collected at one time point, and blood samples of another three mice were collected at alternate time point alternately. Blood was collected at 8 time points of 0.083, 0.25, 0.5, 1, 2, 4, 8, 24 h after administration respectively.
Animals were manually controlled at the time of collection and approximately 80 μL of blood was collected from the mice fundus venous plexus into a tube containing K2EDTA. The collected blood sample was put on wet ice, centrifuged within 15 min (8000 rpm, 4 min at 4° C.), and then the plasma sample was taken and stored at minus 20° C. till analysis. The compounds were prepared on the day of the experiment.
Solvent excipient information: DMSO (brand: Sigma, batch number: SHBD2446V); 2-hydroxypropyl-3-cyclodextrin (brand: Sigma, batch number: BCBN8227V), acetic acid (brand: Sinopharm Group, batch number: 20150616), sodium acetate (Brand: GENERAL-REAGENT, batch number: P1246037).
Preparation of a 3 mg/mL PO dosing solution: the solvent was a solution of 5% DMSO and 95% PH4.5 (sodium acetate-acetate) in 20% of 2-hydroxypropyl-β-cyclodextrin.
Analytical method: Plasma samples were analyzed by liquid chromatography-tandem mass spectrometry (Instrument type: Triple Quad™ 4000).
Preparation of the standard curve: preparing a standard curve of the test compound 1n the plasma matrix of ICR mice with a linear range of 1.00-3000 ng/mL, and preparing control samples at low, medium and high concentrations of 3 ng/mL, 500 ng/mL, and 2400 ng/mL respectively.
Treatment of biological samples: the frozen plasma samples were thawed on ice, and after the samples were thawed, they were vortexed on a vortex for 5 min. 20 μL of plasma sample was added to a 96-well plate, and 200 μL of acetonitrile (brand: Merck, Lot: 1854029643) containing an internal standard dexamethasone (Brand: NIFDC, Lot: 1N2V-DPGY, 2000 ng/mL) was added to precipitate protein, which were vortexed for 5 min, and then centrifuged at 3700 rpm and 4° C. for 15 min. The supernatant was extracted and twice centrifuged under the same conditions, and finally 2 μL of the supernatant solution was analyzed by LC-MS/MS.

[1] = male, ICR, mouse, in vivo, po, 30 mg/kg

wild-type EGFR kinase, sequence (P00533 25-1210): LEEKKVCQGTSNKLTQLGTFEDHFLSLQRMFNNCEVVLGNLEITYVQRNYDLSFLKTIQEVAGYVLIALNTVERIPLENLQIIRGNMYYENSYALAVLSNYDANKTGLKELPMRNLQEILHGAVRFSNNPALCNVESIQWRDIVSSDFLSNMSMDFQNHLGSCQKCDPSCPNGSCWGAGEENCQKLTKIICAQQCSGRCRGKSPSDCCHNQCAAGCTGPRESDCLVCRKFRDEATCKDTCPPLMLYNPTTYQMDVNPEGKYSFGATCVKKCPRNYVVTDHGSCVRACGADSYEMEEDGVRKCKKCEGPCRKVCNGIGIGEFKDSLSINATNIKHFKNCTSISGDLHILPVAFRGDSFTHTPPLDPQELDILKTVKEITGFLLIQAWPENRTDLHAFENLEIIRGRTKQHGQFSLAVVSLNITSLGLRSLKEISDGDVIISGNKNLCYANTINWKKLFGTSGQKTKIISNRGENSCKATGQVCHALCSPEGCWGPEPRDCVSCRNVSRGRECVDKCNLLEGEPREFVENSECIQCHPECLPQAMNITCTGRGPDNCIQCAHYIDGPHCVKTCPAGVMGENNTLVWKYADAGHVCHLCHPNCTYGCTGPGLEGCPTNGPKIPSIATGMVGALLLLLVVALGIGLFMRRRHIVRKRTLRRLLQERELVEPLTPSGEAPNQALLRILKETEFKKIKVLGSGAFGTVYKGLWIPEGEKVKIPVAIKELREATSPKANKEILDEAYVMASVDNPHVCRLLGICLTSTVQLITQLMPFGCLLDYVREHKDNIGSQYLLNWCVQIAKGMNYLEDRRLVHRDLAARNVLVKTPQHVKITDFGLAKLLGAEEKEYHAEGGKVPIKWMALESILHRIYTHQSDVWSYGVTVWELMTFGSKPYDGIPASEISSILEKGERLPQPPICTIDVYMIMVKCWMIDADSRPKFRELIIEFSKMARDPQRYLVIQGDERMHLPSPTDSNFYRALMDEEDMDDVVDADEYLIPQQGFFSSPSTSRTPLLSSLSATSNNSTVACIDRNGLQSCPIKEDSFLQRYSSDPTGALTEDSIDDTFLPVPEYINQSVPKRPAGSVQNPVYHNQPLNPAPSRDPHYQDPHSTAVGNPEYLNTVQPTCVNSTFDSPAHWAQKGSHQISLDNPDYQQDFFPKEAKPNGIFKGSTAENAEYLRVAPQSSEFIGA
βBTK Y223, sequence (Q06187 whole entry): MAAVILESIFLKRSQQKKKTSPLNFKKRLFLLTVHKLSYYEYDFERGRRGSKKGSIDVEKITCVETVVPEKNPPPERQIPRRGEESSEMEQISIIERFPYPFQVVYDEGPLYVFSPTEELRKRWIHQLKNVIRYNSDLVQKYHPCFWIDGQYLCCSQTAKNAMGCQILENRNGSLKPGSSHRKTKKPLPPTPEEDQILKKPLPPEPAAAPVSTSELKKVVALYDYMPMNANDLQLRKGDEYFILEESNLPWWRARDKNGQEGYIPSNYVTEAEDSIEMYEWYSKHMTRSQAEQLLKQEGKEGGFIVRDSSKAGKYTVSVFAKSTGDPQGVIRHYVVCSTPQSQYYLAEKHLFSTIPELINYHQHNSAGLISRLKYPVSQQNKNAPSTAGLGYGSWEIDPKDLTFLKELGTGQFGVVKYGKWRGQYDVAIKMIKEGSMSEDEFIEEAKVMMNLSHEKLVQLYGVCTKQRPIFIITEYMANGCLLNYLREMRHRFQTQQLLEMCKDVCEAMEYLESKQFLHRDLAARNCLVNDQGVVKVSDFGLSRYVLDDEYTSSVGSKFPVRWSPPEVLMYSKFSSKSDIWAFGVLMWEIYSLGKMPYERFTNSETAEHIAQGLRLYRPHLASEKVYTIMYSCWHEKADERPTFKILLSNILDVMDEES
BTK WT, sequence (Q06187 whole entry): as above

Row | SMILES | IC50 (BTK WT) [µM] | IC50 (βBTK Y223) [µM] | IC50 (wild-type EGFR kinase) [µM] | AUC (in vivo; [1]) [µg·h/mL] | Cmax (in vivo; [1]) [µg/mL] | Tmax (in vivo; [1]) [min] | bioavailability (in vivo; [1]) [%] | half-life (in vivo; [1]) [min] | Area under curve AUC (in vivo; mouse, in vivo, po, 30 mg/kg) [µg·h/mL] | Maximum blood concentration Cmax (in vivo; mouse, in vivo, po, 30 mg/kg) [µg/mL] | Oral relative bioavailability F (%) (in vivo; mouse, in vivo, po, 30 mg/kg) | Tmax (in vivo; mouse, in vivo, po, 30 mg/kg) [min] | half-time T1/2 (in vivo; mouse, in vivo, po, 30 mg/kg) [min] | efficacy of the compound in mice compared with the compound without substituent on the nitrogen atom attached to the piperidine ring (in vivo; ICR mice, PO 30 mg/kg, pairs G-7/G-60, G-14/G-71, G-23/G-72) | efficacy of the compound in mice compared with the compound without substituent on the nitrogen atom attached to the piperidine ring (in vivo; mouse, in vivo, po, 30 mg/kg)
1 | C=CC(=O)N1CCCC(Nc2nc(-c3cnn(C)c3)c3c(c2F)CNC3=O)C1 (stereo not drawn) [Compound G-7, 6-(1-acryloylpiperidin-3-ylamino)-7-fluoro-4-(1-methyl-1H-pyrazole-4-yl)-1H-pyrrolo[3,4-c]pyridine-3(2H)-one] | 0.035 | 0.011 | 3.95 | 1.33 | 1.83 | 4.8 | 25.4 | 93 | – | – | – | – | – | – | –
2 | C=CC(=O)N1CCCC(Nc2nc(Nc3ccc(N4CCOCC4)cc3)c3c(c2F)CNC3=O)C1 (stereo not drawn) [Compound G-14] | 0.003 | 0.003 | 4.13 | – | – | – | – | – | 1.072 | 1.24 | 13.7 | 4.8 | 148 | – | –
3 | C=CC(=O)N1CC(Nc2nc(-c3cnn(C)c3)c3c(c2F)CNC3=O)CCC1C (stereo not drawn) [Compound G-26, 6-(1-acryloyl-6-methylpiperidin-3-ylamino)-7-fluoro-4-(1-methyl-1H-pyrazole-4-yl)-1H-pyrrolo[3,4-c]pyridine-3(2H)-one] | 0.027 | 0.047 | 6.69 | 1.29 | 2.4 | 4.8 | 13.1 | 127 | – | – | – | – | – | – | –
4 | C=CC(=O)N1CCCC(Nc2nc(Nc3ccc(N4CCOCC4)cc3F)c3c(c2F)CNC3=O)C1 (stereo not drawn) [Compound G-31] | 0.007 | 0.011 | 7.93 | – | – | – | – | – | 1.839 | 1.237 | 28.2 | 15 | 103 | – | –
5 | C=CC(=O)N1CCCC(Nc2nc(Nc3ccc(N4CCOCC4)c(Cl)c3)c3c(c2F)CNC3=O)C1 (stereo not drawn) [Compound G-39] | 0.002 | 0.003 | 6.31 | – | – | – | – | – | 1.182 | 1.501 | 15.2 | 4.8 | 138 | – | –
6 | C=CC(=O)N1CCCC(N(C)c2nc(-c3cnn(C)c3)c3c(c2F)CNC3=O)C1 (stereo not drawn) [Compound G-60, 6-((1-acryloylpiperidin-3-yl)(methyl)amino)-7-fluoro-4-(1-methyl-1H-pyrazole-4-yl)-1H-pyrrolo[3.4-c]pyridine-3 (2H)-one] | 0.009 | 0.024 | > 10 | – | – | – | – | – | 0.109 | 0.3517 | 3 | 4.8 | 634.2 | significantly lower | –
7 | C=CC(=O)N1CCCC(N(C)c2nc(-c3cnn(C(F)F)c3)c3c(c2F)CNC3=O)C1 (stereo not drawn) [Compound G-63, 6-((1-acryloylpiperidin-3-yl)(methyl)amino)-4-(1-(difluoromethyl)-1H-pyrazole-4-yl)-7-fluoro-1H-pyrrolo[3,4-c]pyridine-3(2H)-one] | 0.025 | 0.05 | > 10 | – | – | – | – | – | – | – | – | – | – | – | –
8 | C=CC(=O)N1CCCC(N(C)c2nc(Nc3ccc(N4CCOCC4)cc3)c3c(c2F)CNC3=O)C1 (stereo not drawn) [Compound G-71, 6-((1-acryloylpiperidin-3-yl)(methyl)amino)-7-fluoro-4-(4-morpholin)-1H-pyrrolo[3,4-c]pyridine-3 (2H)-one] | 0.005 | 0.003 | 1.59 | 0.606 | 0.533 | 4.8 | 7.4 | 679 | – | – | – | – | – | – | significantly lower
9 | C=CC(=O)N1CCCC(N(C)c2nc(Nc3cc(C)ns3)c3c(c2F)CNC3=O)C1 (stereo not drawn) [Compound G-72, 6-((1-acryloylpiperidin-3-yl)(methyl)amino)-7-fluoro-4-(3-methylisothiazole-5-ylamino)-1H-pyrrolo[3,4-c]pyridine-3(2H)-one] | 0.005 | 0.004 | 1.66 | 0.107 | 0.0107 | 15 | – | 679 | – | – | – | – | – | – | significantly lower
10 | C=CC(=O)N1CC2CN(c3nc(Nc4cnn(C)c4)c4c(c3F)CNC4=O)CC2C1 (stereo not drawn) [Compound G-76] | 0.0008 | 0.002 | 1.36 | – | – | – | – | – | – | – | – | – | – | – | –
11 | C=CC(=O)NC1CN(c2nc(Nc3cnn(C)c3)c3c(c2F)CNC3=O)C1 [Compound G-85, N-(1-(7-fluoro-4-(1-methyl-1H-pyrazol-4-ylamino)-3-oxo-2,3-dihydro-1H-pyrrolo[3,4-c]pyridin-6-yl)azetidin-3-yl)acrylamide] | 0.032 | 0.043 | 1.12 | – | – | – | – | – | – | – | – | – | – | – | –
12 | C=CC(=O)NC1CN(c2nc(Nc3ccc(N4CCOCC4)cc3)c3c(c2F)CNC3=O)CC1F (stereo not drawn) [Compound G-86, N-(4-fluoro-1-(7-fluoro-4-(4-morpholin)-3-oxo-2,3-dihydro-1H-pyrrolo[3,4-c]pyridin-6-yl)pyrrolidinepyridine-3-yl)acrylamide] | 0.001 | 0.005 | 1.19 | – | – | – | – | – | – | – | – | – | – | – | –
13 | C=CC(=O)N(C)C1CCN(c2nc(Nc3cnn(C)c3)c3c(c2F)CNC3=O)C1 (stereo not drawn) [Compound G-88, N-(1-(7-fluoro-4-(1-methyl-1H-pyrazol-4-ylamino)-3-oxo-2,3-dihydro-1H-pyrrolo[3,4-c]pyridin-6-yl)pyrrolidine-3-yl)-N-methyl acrylamide] | 0.017 | 0.056 | 1.05 | – | – | – | – | – | – | – | – | – | – | – | –
